In patent US8822449B2, “Substituted aminoindanes and analogs thereof, and the pharmaceutical use thereof” (Sanofi, priority 2008, dated 2014):

biological target: T1, sodium-proton exchanger of subtype 3 (NHE3) (Homo sapiens, UniProt P48764); assay: Recovery of intracellular pH (pHi) after acidification in LAP1 cells stably expressing NHE3 (BCECF fluorescence, FLIPR); assay type: cell-based; conditions: LAP1 cells stably expressing NHE3; pH recovery after acidification; range 1 is % inhibition at 10 μM; read-out: Activity range (inhibitory effect on NHE3)
T1 construct: expressed in transfected cells
T1 sequence (P48764 26-834): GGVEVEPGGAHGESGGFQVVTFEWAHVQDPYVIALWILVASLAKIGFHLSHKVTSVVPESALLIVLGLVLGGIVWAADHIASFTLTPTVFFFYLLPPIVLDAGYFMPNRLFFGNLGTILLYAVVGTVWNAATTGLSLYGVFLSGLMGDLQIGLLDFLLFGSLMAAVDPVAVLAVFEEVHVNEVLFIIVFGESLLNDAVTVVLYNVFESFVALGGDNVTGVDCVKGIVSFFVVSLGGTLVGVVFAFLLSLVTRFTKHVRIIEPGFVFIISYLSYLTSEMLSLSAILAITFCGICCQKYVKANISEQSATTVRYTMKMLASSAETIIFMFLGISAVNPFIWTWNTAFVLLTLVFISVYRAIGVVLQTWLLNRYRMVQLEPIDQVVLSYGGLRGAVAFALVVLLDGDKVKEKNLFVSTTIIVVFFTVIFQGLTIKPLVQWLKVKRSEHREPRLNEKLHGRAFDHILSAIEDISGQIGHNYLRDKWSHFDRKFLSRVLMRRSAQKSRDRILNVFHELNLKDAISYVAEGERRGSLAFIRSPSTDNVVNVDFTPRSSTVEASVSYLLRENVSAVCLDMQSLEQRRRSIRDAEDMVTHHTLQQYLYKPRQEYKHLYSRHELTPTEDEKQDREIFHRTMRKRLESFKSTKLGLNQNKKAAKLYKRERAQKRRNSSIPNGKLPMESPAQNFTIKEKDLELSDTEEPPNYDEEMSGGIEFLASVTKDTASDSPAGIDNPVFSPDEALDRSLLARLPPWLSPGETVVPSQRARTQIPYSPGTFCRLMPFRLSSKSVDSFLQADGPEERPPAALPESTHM

| IC50 [nM] | inhibition at 10 µM [%] | SMILES |
| --- | --- | --- |
| 1000 to 10000 |  | COC(=O)c1ccc(O[C@H]2c3ccccc3C[C@@H]2N2CCCC2)cc1 (racemic) [Example 467, 4-(rac-trans-(1,2)-2-pyrrolidin-1-ylindan-1-yloxy)benzoic acid methyl ester] |
| 1000 to 10000 |  | CN(C1CCCC1)[C@@H]1Cc2ccccc2[C@H]1Oc1ccc(S(C)(=O)=O)cc1 (racemic) [Example 730, Cyclopentyl-[rac-trans-(1,2)-1-(4-methanesulfonyl-phenoxy)-indan-2-yl]-methyl-amine] |
| 1000 to 10000 |  | COc1cccc(F)c1O[C@@H]1c2ccccc2C[C@H]1N1CCC(N)C1 (mixture of isomers) [Example 266, 1-[rac-trans-(1,2)-1-(2-fluoro-6-methoxyphenoxy)indan-2-yl]pyrrolidin-3-ylamine] |
| 1000 to 10000 |  | N#Cc1ccc(O[C@@H]2c3ccccc3C[C@H]2N2CCC[C@@H](N)C2)c(Cl)c1 (racemic) [Example 523, 4-[rac-trans-(1,2)-2-((R)-3-aminopiperidin-1-yl)indan-1-yloxy]-3-chlorobenzonitrile] |

Second part, the molecule before the results:

| SMILES | IC50 [nM] | inhibition at 10 µM [%] |
| --- | --- | --- |
| CC1(C)OC(=O)N(c2ccc(Cl)c(O[C@H]3c4cc(Cl)cc(F)c4C[C@@H]3N3CC[C@@H](O)C3)c2)C1=O [Example 437, 3-{4-chloro-3-[(1S,2S)-6-chloro-4-fluoro-2-((R)-3-hydroxypyrrolidin-1-yl)indan-1-yloxy]phenyl}-5,5-dimethyloxazolidine-2,4-dione] | 1000 to 10000 |  |
| N[C@H]1CCCN([C@H]2CCc3ccccc3[C@@H]2Oc2ccc(F)cc2-c2ccno2)C1 (racemic) [Example 178, (S)-1-[rac-trans-(1,2)-1-(4-fluoro-2-isoxazol-5-ylphenoxy)-1,2,3,4-tetrahydronaphthalen-2-yl]piperidin-3-ylamine] |  | 20 to 50 |
| CS(=O)(=O)c1ccc(O[C@H]2c3cc(Cl)cc(Cl)c3C[C@@H]2N2CC[C@H](O)C2)cc1 [Example 198, (S)-1-[trans-(1S,2S)-4,6-dichloro-1-(4-methanesulfonylphenoxy)indan-2-yl]pyrrolidin-3-ol] | < 1000 |  |
| Cc1ccc(O[C@H]2c3ccccc3CC[C@@H]2N2CCC[C@H](N)C2)c(Cl)c1 (racemic) [Example 152, (S)-1-[rac-trans-(1,2)-1-(2-chloro-4-methylphenoxy)-1,2,3,4-tetrahydronaphthalen-2-yl]piperidin-3-ylamine] |  | 20 to 50 |
| N[C@H]1CCCN([C@@H]2Cc3ccccc3[C@H]2Oc2cccc(N3CCNCC3)c2)C1 (racemic) [Example 169, (S)-1-[rac-trans-(1,2)-1-(3-piperazin-1-ylphenoxy)indan-2-yl]piperidin-3-ylamine] | < 1000 |  |
| N[C@H]1CCCN([C@@H]2Cc3ccccc3[C@H]2Oc2ccc(Br)cc2-c2cc[nH]n2)C1 (racemic) [Example 204, (S)-1-{rac-trans-(1,2)-1-[4-bromo-2-(1H-pyrazol-3-yl)phenoxy]indan-2-yl}piperidin-3-ylamine] | 1000 to 10000 |  |
| CN(C)C[C@H]1Cc2c(Cl)cc(Cl)cc2[C@@H]1Oc1ccc(S(C)(=O)=O)cc1 (racemic) [Example 217, [rac-trans-(1,2)-4,6-dichloro-1-(4-methanesulfonylphenoxy)indan-2-ylmethyl]dimethylamine] |  | 20 to 50 |
| CS(=O)(=O)c1ccc(N[C@H]2c3cc(Cl)cc(Cl)c3C[C@@H]2N2CC[C@@H](O)C2)cc1 [Example 26, (R)-1-[(1S,2S)-4,6-dichloro-1-(4-methanesulfonylphenylamino)indan-2-yl]pyrrolidin-3-ol] | 1000 to 10000 |  |
| NS(=O)(=O)c1ccc(O[C@H]2c3ccccc3C[C@@H]2CN2CCCC2)cc1Cl (racemic) [Example 389, 2-chloro-4-(2-pyrrolidin-1-ylmethylindan-1-yloxy)benzenesulfonamide] | 1000 to 10000 |  |
| CS(=O)(=O)c1ccc(O[C@@H]2c3ccccc3C[C@H]2NCC2CCC2)cc1 (racemic) [Example 717, Cyclobutylmethyl-[rac-trans-(1,2)-1-(4-methanesulfonyl-phenoxy)-indan-2-yl]-amine] | 1000 to 10000 |  |
